Laboratory results published in article PMC12062745, “The immunostimulatory activity of Epimedium flavonoids involves toll-like receptor 7/8” (Frontiers in Pharmacology, 2025).

Tests used:
Test in all cases: SPR (Biacore S200)
Format in all cases: binding
recombinant mouse TLR8 [1] = target: T1, recombinant mouse TLR8 (Mus musculus, UniProt P58682); conditions: read-out: KD8
T1 construct: recombinant from Escherichia coli supernatant
T1 sequence (P58682 24-1032): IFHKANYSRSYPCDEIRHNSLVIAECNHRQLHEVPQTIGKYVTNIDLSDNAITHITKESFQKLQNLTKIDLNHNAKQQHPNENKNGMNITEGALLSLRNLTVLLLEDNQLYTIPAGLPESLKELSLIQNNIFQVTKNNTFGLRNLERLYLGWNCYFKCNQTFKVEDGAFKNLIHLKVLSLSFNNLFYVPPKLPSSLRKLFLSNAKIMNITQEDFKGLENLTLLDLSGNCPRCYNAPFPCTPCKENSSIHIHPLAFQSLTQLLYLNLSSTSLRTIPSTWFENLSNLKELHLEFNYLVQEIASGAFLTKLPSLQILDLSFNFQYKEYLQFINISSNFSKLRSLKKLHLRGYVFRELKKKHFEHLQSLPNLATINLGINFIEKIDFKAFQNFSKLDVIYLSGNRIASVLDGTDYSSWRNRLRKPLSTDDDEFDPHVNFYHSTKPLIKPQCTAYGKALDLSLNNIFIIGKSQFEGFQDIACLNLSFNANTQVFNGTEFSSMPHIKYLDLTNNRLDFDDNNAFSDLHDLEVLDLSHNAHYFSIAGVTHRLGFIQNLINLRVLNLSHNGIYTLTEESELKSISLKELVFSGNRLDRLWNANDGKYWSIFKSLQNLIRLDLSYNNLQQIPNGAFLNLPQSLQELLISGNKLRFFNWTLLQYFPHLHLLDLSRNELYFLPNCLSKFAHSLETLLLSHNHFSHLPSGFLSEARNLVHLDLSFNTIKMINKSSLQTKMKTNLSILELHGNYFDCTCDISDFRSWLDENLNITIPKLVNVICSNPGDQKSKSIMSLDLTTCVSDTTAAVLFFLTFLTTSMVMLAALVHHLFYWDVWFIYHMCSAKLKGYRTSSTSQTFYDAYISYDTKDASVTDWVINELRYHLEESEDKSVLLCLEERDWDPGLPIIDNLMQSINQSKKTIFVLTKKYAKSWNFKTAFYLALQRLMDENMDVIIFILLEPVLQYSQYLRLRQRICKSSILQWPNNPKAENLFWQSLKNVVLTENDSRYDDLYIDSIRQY

recombinant mouse TLR7 = target: T2, recombinant mouse TLR7 (Mus musculus, UniProt P58681); conditions: 80 μM compound
T2 construct: recombinant from Escherichia coli supernatant
T2 sequence (P58681 27-1050): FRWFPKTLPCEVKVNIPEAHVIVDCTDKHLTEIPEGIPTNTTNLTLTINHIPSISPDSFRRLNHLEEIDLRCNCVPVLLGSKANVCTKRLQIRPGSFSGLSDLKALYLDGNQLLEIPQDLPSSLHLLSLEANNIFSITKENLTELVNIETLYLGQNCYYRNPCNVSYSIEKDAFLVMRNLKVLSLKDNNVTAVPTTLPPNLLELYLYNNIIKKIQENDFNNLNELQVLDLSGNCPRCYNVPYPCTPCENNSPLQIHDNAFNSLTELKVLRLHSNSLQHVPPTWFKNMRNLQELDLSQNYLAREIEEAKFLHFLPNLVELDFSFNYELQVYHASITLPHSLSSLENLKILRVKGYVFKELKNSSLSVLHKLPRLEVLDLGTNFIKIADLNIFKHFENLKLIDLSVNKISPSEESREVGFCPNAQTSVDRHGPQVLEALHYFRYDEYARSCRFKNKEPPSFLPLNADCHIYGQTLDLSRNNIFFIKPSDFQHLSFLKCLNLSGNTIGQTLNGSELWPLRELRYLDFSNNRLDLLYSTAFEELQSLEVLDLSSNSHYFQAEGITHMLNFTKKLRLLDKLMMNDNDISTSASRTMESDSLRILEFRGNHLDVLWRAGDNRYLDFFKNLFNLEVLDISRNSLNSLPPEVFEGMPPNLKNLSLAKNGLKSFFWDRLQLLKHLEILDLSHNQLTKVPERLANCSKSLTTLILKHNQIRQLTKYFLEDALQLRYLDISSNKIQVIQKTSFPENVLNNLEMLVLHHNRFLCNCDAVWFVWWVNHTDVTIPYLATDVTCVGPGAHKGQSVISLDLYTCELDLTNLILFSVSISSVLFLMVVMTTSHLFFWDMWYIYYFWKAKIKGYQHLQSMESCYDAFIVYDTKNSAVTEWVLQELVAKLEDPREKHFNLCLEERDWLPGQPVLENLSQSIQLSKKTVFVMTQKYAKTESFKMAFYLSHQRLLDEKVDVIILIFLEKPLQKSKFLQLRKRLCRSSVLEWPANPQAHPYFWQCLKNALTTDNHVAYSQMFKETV

recombinant mouse TLR8 [2] = target: T1, recombinant mouse TLR8; conditions: 80 μM compound

Compound: COc1ccc(-c2oc3c(CC=C(C)C)c(O)cc(O)c3c(=O)c2O[C@@H]2O[C@@H](C)[C@H](O)[C@@H](O)[C@H]2O)cc1 [icariin II]
- Kd (recombinant mouse TLR8 [1]): 10.3 µM
- SPR (Biacore S200) (recombinant mouse TLR7): SPR analysis revealed that icariin II exhibited the highest binding response to TLR7

Compound: COc1ccc(-c2oc3c(CC=C(C)C)c(O[C@@H]4O[C@H](CO)[C@@H](O)[C@H](O)[C@H]4O)cc(O)c3c(=O)c2O)cc1 [icariin I]
- response value (RU) (recombinant mouse TLR8 [2]): 43 RU
